Source: patent publication US12478624B2, “Heterocyclic derivatives, pharmaceutical compositions and their use in the treatment or amelioration of cancer” (Tolremo Therapeutics AG, priority 2019, dated 2025)

Key:
A375 cells = assay: Assay 1: A375 cells treated with S1152, S1008 and compound, immunofluorescence (sc-365823) signal; type: cell-based; conditions: 1 μM S1152 + 0.5 μM S1008, one day
In short: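 A375 cells treated one day with 1 μM S1152, 0.5 μM S1008 and compound dose ranges in DMEM/10% FCS, then fixed, permeabilised and immunostained. Green signal normalised to nuclear counterstain (ethidium-type or DAPI), log ratio fitted by four-parameter regression for EC50.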

CBP Bromodomain = molecular target: T1, CBP Bromodomain (Homo sapiens, UniProt Q92793); assay: Assay 3: CBP bromodomain binding assay (TR-FRET)
T1 construct: purchased Cayman chemicals 600850
Protocol: Assay 3 CBP Bromodomain Binding Assay (TR-FRET)
Compounds solutions of 10 mM in DMSO were pre-diluted in DSMO to 25× stock solutions in DMSO. These were then diluted down to 4× in assay buffer. A dilution series in assay buffer was performed keeping the DMSO concentration stable. 5 μl compound in assay buffer was transferred into the assay plate (provided by assay kit) and the TR-FRET assay Cayman chemicals; 600850) was performed using the manufactor's instructions. After 1 hour incubation at room temperature in the darks, assay plates were read in a Tecan M1000 plate reader or a Tecan Spaks reader using the TR-FRET mode (top read; excitation 340 nm bandwidth […]; emission 620 nm bandwidth […]; gain optimal determined for the first well, number of flashes: 5; flash frequency 100 Hz; integration time: 500 μs, lag time: 100 μs, room temperature). The TR-FRET ratio was calculated by deviding 670 nm emission by 620 nm emission. Values were log transformed and non-linear regression with variable slope (4 parameters) was used to fit values to a dose-response curve to evaluate EC50 values.

OPM-2 = assay: Assay 2: multiple myeloma cellular efficacy, PrestoBlue cell proliferation/survival; type: cell-based; conditions: Homo sapiens, 96 h, OPM-2 cells, 4 days
In short: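 Cells seeded at 10000/well and exposed to a compound dose range or vehicle for 4 days, then stained with PrestoBlue for 2 h at 37 °C. Fluorescence was background-subtracted and normalized to vehicle; EC50 came from a four-parameter variable-slope fit against log concentration.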

T1 sequence (Q92793 1085-1192 limits assumed): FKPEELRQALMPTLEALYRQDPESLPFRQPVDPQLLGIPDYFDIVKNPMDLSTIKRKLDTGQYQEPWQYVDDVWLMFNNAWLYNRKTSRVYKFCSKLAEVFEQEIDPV

| SMILES | EC50 (A375 cells) [nM] | EC50 (CBP Bromodomain) [nM] | EC50 (OPM-2) [nM] |
| --- | --- | --- | --- |
| CC(=O)N1C[C@H](c2nc(Nc3cccc4[nH]ncc34)cc(-c3cccnc3)n2)CC[C@@H]1C [Compound 00042, 1-((2S,5R)-5-(4-((1H-indazol-4-yl)amino)-6-(pyridin-3-yl)pyrimidin-2-yl)-2-methylpiperidin-1-yl)ethan-1-one] | < 200 | 200 to 1000 |  |
| CC(=O)N1C[C@H](c2nc(Nc3ccnc(C)c3)cc(-c3cnccn3)n2)CC[C@@H]1C [Compound 00126, 1-((2S,5R)-2-methyl-5-(4-((2-methylpyridin-4-yl)amino)-6-(pyrazin-2-yl)pyrimidin-2-yl)piperidin-1-yl)ethan-1-one] |  | < 200 |  |
| CC(=O)N1C[C@H](c2nc(Nc3cc(F)cc(-c4cnn(C)c4)c3)cc(-c3cccnc3)n2)CC[C@@H]1C [Compound 00043, 1-((2S,5R)-5-(4-((3-fluoro-5-(1-methyl-1H-pyrazol-4-yl)phenyl)amino)-6-(pyridin-3-yl)pyrimidin-2-yl)-2-methylpiperidin-1-yl)ethan-1-one] | < 200 | < 200 |  |
| CC(=O)N1C[C@H](c2nc(Nc3cc(F)cc(C(=O)N(C)C)c3)cc(-c3cccnc3)n2)CC[C@@H]1C [Compound 00038, 3-((2-((3R,6S)-1-acetyl-6-methylpiperidin-3-yl)-6-(pyridin3-yl)pyrimidin-4-yl)amino)-5-fluoro-N,N-dimethylbenzamide] | 200 to 1000 | 200 to 1000 |  |
| COCC(=O)Nc1cccc(Nc2cc(-c3cccnc3)nc([C@@H]3CC[C@H](C)N(C(C)=O)C3)n2)c1 [Compound 00084, N-(3-((2-((3R,6S)-1-acetyl-6-methylpiperidin-3-yl)-6-(pyridin-3-yl)pyrimidin-4-yl)amino)phenyl)-2-methoxyacetamide] | < 200 |  | 200 to 1000 |
| CC(=O)N1C[C@H](c2nc(Nc3cccc(-c4nnco4)c3)cc(-c3cccnc3)n2)CC[C@@H]1C [Compound 00141, 1-((2S,5R)-5-(4-((3-(1,3,4-oxadiazol-2-yl)phenyl)amino)-6-(pyridin-3-yl)pyrimidin-2-yl)-2-methylpiperidin-1-yl)ethan-1-one] | < 200 |  | < 200 |
| CC(=O)N1C[C@H](c2nc(Nc3cc(F)cc(N4CCOCC4)c3)cc(-c3cnccn3)n2)CC[C@@H]1C [Compound 00070, 1-((2S,5R)-5-(4-((3-fluoro-5-morpholinophenyl)amino)-6-(pyrazin-2-yl)pyrimidin-2-yl)-2-methylpiperidin-1-yl)ethan-1-one] | < 200 |  | < 200 |
| CC(=O)N1C[C@H](c2nc(Nc3cc(C)nc(C)c3)cc(-c3cccnc3)n2)CC[C@@H]1C [Compound 00138, 1-((2S,5R)-5-(4-((2,6-dimethylpyridin-4-yl)amino)-6-(pyridin-3-yl)pyrimidin-2-yl)-2-methylpiperidin-1-yl)ethan-1-one] | < 200 |  | 200 to 1000 |
| CC(=O)N1C[C@H](c2nc(Nc3cc(C)ncn3)cc(-c3cnccn3)n2)CC[C@@H]1C [Compound 00151, 1-((2S,5R)-2-methyl-5-(4-((6-methylpyrimidin-4-yl)amino)-6-(pyrazin-2-yl)pyrimidin-2-yl)piperidin-1-yl)ethan-1-one] | 200 to 1000 |  | 200 to 1000 |
| CC(=O)Nc1cc(F)cc(Nc2cc(-c3cccnc3)nc([C@@H]3CC[C@H](C)N(C(C)=O)C3)n2)c1 [Compound 00047, N-(3-((2-((3R,6S)-1-acetyl-6-methylpiperidin-3-yl)-6-(pyridin-3-yl)pyrimidin-4-yl)amino)-5-fluorophenyl)acetamide] | < 200 |  | < 200 |
| COCCn1cc(-c2cc(Nc3cc(-c4cccnc4)nc([C@@H]4CC[C@H](C)N(C(C)=O)C4)n3)ccn2)cn1 [Compound 00160, 1-((2S,5R)-5-(4-((2-(1-(2-methoxyethyl)-1H-pyrazol-4-yl)pyridin-4-yl)amino)-6-(pyridin-3-yl)pyrimidin-2-yl)-2-methylpiperidin-1-yl)ethan-1-one] | 200 to 1000 |  | 200 to 1000 |
| CC(=O)Nc1cc(Nc2cc(-c3cccnc3)nc([C@@H]3CC[C@H](C)N(C(C)=O)C3)n2)cc(C(F)F)c1 [Compound 00060, N-(3-((2-((3R,6S)-1-acetyl-6-methylpiperidin-3-yl)-6-(pyridin-3-yl)pyrimidin-4-yl)amino)-5-(difluoromethyl)phenyl)acetamide] | 200 to 1000 |  | < 200 |
| CC(=O)N1C[C@H](c2nc(Nc3ccnc(C)c3)cc(-c3cccnc3)n2)CC[C@@H]1C [Compound 00095, 1-((2S,5R)-2-methyl-5-(4-((2-methylpyridin-4-yl)amino)-6-(pyridin-3-yl)pyrimidin-2-yl)piperidin-1-yl)ethan-1-one] | < 200 |  | < 200 |
| CC(=O)N1C[C@H](c2nc(Nc3ccnc(F)c3)cc(-c3cncc(O)c3)n2)CC[C@@H]1C [Compound 00117, 1-((2S,5R)-5-(4-((2-fluoropyridin-4-yl)amino)-6-(5-hydroxypyridin-3-yl)pyrimidin-2-yl)-2-methylpiperidin-1-yl)ethan-1-one] | 1000 to 10000 |  | 1000 to 10000 |
| CC(=O)N1C[C@H](c2nc(Nc3ccnc(-c4cnn(C)c4)c3)cc(-c3cccnc3)n2)CC[C@@H]1C [Compound 00143, 1-((2S,5R)-2-methyl-5-(4-((2-(1-methyl-1H-pyrazol-4-yl)pyridin-4-yl)amino)-6-(pyridin-3-yl)pyrimidin-2-yl)piperidin-1-yl)ethan-1-one] | < 200 |  | < 200 |
| CC(=O)N1C[C@H](c2nc(Nc3cccc(-c4nnn(C)n4)c3)cc(-c3cccnc3)n2)CC[C@@H]1C [Compound 00062, 1-((2S,5R)-2-methyl-5-(4-((3-(2-methyl-2H-tetrazol-5-yl)phenyl)amino)-6-(pyridin-3-yl)pyrimidin-2-yl)piperidin-1-yl)ethan-1-one] | < 200 |  | < 200 |
| CC(=O)N1C[C@H](c2nc(-c3cnccn3)cc(N(C)c3ccnc(C)c3)n2)CC[C@@H]1C [Compound 00167, 1-((2S,5R)-2-methyl-5-(4-(methyl(2-methylpyridin-4-yl)amino)-6-(pyrazin-2-yl)pyrimidin-2-yl)piperidin-1-yl)ethan-1-one] | 200 to 1000 |  | 1000 to 10000 |
| CC(=O)N1C[C@H](c2nc(Nc3ccnc(C)c3)cc(-c3cc(C)cs3)n2)CC[C@@H]1C [Compound 00105, 1-((2S,5R)-2-methyl-5-(4-((2-methylpyridin-4-yl)amino)-6-(4-methylthiophen-2-yl)pyrimidin-2-yl)piperidin-1-yl)ethan-1-one] | < 200 |  | 200 to 1000 |
| COc1cc(Nc2cc(-c3cnccn3)nc([C@@H]3CC[C@H](C)N(C(C)=O)C3)n2)cc(C)n1 [Compound 00150, 1-((2S,5R)-5-(4-((2-methoxy-6-methylpyridin-4-yl)amino)-6-(pyrazin-2-yl)pyrimidin-2-yl)-2-methylpiperidin-1-yl)ethan-1-one] | < 200 |  | < 200 |
| CC(=O)N1C[C@H](c2nc(Nc3ccnc(-c4cnn(C5CCOCC5)c4)c3)cc(-c3cccnc3)n2)CC[C@@H]1C [Compound 00159, 1-((2S-5R)-2-methyl-5-(4-(pyridin-3-yl)-6-((2-(1-(tetrahydro-2H-pyran-4-yl)-1H-pyrazol-4-yl)pyridin-4-yl)amino)pyrimidin-2-yl)piperidin-1-yl)ethan-1-one] | < 200 |  | < 200 |
| CC(=O)Nc1cccc(Nc2cc(-c3cncc4c3ccn4C)nc([C@@H]3CC[C@H](C)N(C(C)=O)C3)n2)c1 [Compound 00085, N-(3-((2-((3R,6S)-1-acetyl-6-methylpiperidin-3-yl)-6-(1-methyl-1H-pyrrolo[2,3-c]pyridin-4-yl)pyrimidin-4-yl)amino)phenyl)acetamide] | < 200 |  | < 200 |
| CC(=O)N1C[C@H](c2nc(Nc3cc(C)nc(-c4cnn(C)c4)c3)cc(-c3cnccn3)n2)CC[C@@H]1C [Compound 00154, 1-((2S,5R)-2-methyl-5-(4-((2-methyl-6-(1-methyl-1H-pyrazol-4-yl)pyridin-4-yl)amino)-6-(pyrazin2-yl)pyrimidin-2-yl)piperidin-1-yl)ethan-1-one] | < 200 |  | 200 to 1000 |
| CC(=O)N1C[C@H](c2nc(Nc3cncc(C)c3)cc(-c3cccnc3)n2)CC[C@@H]1C (racemic) [Compound 00096, (+/−)-cis-1-(2-methyl-5-(4-((5-methylpyridin-3-yl)amino)-6-(pyridin-3-yl)pyrimidin-2-yl)piperidin-1-yl)ethan-1-one] | < 200 |  | 200 to 1000 |
| CC(=O)N1C[C@H](c2nc(Nc3cc(C)nc(F)c3)cc(-c3cccnc3)n2)CC[C@@H]1C [Compound 00134, 1-((2S,5R)-5-(4-((2-fluoro-6-methylpyridin-4-yl)amino)-6-(pyridin-3-yl)pyrimidin-2-yl)-2-methylpiperidin-1-yl)ethan1-one] | < 200 |  | < 200 |
